This passage reports IC50 results from US12351571B2, “Substituted quinoxaline compounds as inhibitors of FGFR tyrosine kinases” (ARRAY BIOPHARMA INC., priority 2018, dated 2025).

Broadly, the IC50 is the point on the concentration scale where inhibition reaches its midpoint.

recombinant human FGFR2 cytoplasmic domain, sequence (P21802 402-821): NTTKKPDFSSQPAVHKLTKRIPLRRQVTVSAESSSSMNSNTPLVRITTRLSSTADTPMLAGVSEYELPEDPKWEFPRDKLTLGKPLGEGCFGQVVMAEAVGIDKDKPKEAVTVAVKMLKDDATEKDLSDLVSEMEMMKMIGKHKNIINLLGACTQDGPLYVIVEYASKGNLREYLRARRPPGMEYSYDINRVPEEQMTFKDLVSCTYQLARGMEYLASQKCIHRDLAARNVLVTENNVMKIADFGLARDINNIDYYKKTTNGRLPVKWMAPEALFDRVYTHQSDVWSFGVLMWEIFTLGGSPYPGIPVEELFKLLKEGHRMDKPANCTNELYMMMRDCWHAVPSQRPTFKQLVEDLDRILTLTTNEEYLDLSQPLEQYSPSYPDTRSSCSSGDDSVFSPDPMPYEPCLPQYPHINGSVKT

The assay addresses recombinant human FGFR2 cytoplasmic domain (Homo sapiens (Human), UniProt P21802). Kind of assay: FGFR Enzyme Activity Assay (LanthaScreen TR-FRET), FGFR2. The following applies: 15 μM ATP, 20 minute incubation; read-out: FGFR2 Enz FRET IC50. In kind it is biochemical. How it is done: FGFR2 kinase activity was measured by the Invitrogen LanthaScreen™ Assay technology which directly measures the amount of substrate phosphorylation by TR-FRET using a flourescently-labeled peptide and Europium-labeled antibody. Briefly, 200 pM His-tagged recombinant human FGFR2 cytoplasmic domain (amino acids 403-822) (Life Technologies Cat. No. PR5332A) was incubated with 100 nM Alexa Fluor® 647-Poly-GT Peptide Substrate (Life Technologies Cat. No. PV5836) and 15 μM ATP along with test compound in a buffer consisting of 250 mM HEPES, 25 mM MgCl2, 0.05% TritonX-100, pH 7.5, and 2% DMSO. Compounds were typically prepared in a threefold serial dilution in DMSO and added to the assay to give the appropriate final concentration. After a 20 minute incubation at 22° C., an equal volume of 2 nM LanthaScreen® Eu-PY20 Antibody (Life Technologies Cat. No. PV5691) and 10 mM EDTA were added to quench the kinase reaction and start the detection reaction. After an additional 60 minute incubation at 22° C., the reaction was measured using a PerkinElmer EnVision multimode plate reader via TR-FRET dual wavelength detection, and the percent of control (POC) calculated using a ratiometric emission factor. 100 POC was determined using no test compounds and 0 POC was determined using no enzyme. The POC values were fit to a 4-parameter logistic curve as a function of the concentration of the compound, and the IC50 value is the point where the curve crosses 50 POC.
Regarding `C=CC(=O)N1CC(F)(C(=O)N2CCN(c3ccc(-c4cnc5ccc(Nc6cc(OC)cc(OC)c6)cc5n4)cn3)CC2)C1` [Example 8, 1-(3-(4-(5-(7-((3,5-dimethoxyphenyl)amino)-quinoxalin-2-yl)pyridin-2-yl)piperazine-1-carbonyl)-3-fluoroazetidin-1-yl)-prop-2-en-1-one], the IC50 turned out to be 0.744 µM.

Take `COc1cc(Nc2ccc3ncc(-c4cnn(C5CCN(C(=O)C6(C#N)CN(C(=O)/C=C/CN(C)C)C6)CC5)c4)nc3c2)cc(OC)c1` [Example 11, (E)-3-(4-(4-(7-((3,5-dimethoxyphenyl)amino)-quinoxalin-2-yl)-1H-pyrazol-1-yl)piperidine-1-carbonyl)-1-(4-(dimethyl-amino)but-2-enoyl)-azetidine-3-carbonitrile]: the IC50 came out at 0.015 µM.

Take `COc1cc(Nc2ccc3ncc(-c4ccc(N5CCN(C(=O)C6(F)CN(C(=O)/C=C/CN(C)C)C6)CC5)nc4C)nc3c2)cc(OC)c1` [Example 13, (E)-1-(3-(4-(5-(7-((3,5-dimethoxyphenyl)amino)-quinoxalin-2-yl)-6-methylpyridin-2-yl)-piperazine-1-carbonyl)-3-fluoroazetidin-1-yl)-4-(dimethylamino)but-2-en-1-one]: the 50% inhibitory concentration (IC50) came out at 1.91 µM.

Regarding `COc1cc(Nc2ccc3ncc(-c4cnn([C@@H]5CCN(C(=O)C6CN(C(=O)/C=C/CN(C)C)C6)C5)c4)nc3c2)cc(OC)c1` [Example 20, (R,E)-1-(3-(3-(4-(7-((3,5-dimethoxyphenyl)amino)-quinoxalin-2-yl)-1H-pyrazol-1-yl)pyrrolidine-1-carbonyl)azetidin-1-yl)-4-(dimethylamino)but-2-en-1-one], the IC50 turned out to be 0.107 µM.

On to `C=CC(=O)N1CC(C#N)(C(=O)N2CCC(n3cc(-c4cnc5ccc(Nc6cc(OC)cc(OC)c6)cc5n4)cn3)CC2)C1` [Example 12, 1-acryloyl-3-(4-(4-(7-((3,5-dimethoxyphenyl)-amino)quinoxalin-2-yl)-1H-pyrazol-1-yl)-piperidine-1-carbonyl)-azetidine-3-carbonitrile], for which the IC50 is 0.033 µM.

Consider `C=CC(=O)N1CC(F)(C(=O)N2CCN(c3cc(C)c(-c4cnc5ccc(Nc6cc(OC)cc(OC)c6)cc5n4)cn3)CC2)C1` [Example 15, 1-(3-(4-(5-(7-((3,5-dimethoxyphenyl)amino)-quinoxalin-2-yl)-4-methylpyridin-2-yl)-piperazine-1-carbonyl)-3-fluoroazetidin-1-yl)prop-2-en-1-one], for which the IC50 was determined as 5 µM.

As to `COc1cc(Nc2ccc3ncc(-c4cnn([C@@H]5CCN(C(=O)C6(F)CN(C(=O)/C=C/CN(C)C)C6)C5)c4)nc3c2)cc(OC)c1` [Example 19, (R,E)-1-(3-(3-(4-(7-((3,5-dimethoxyphenyl)amino)-quinoxalin-2-yl)-1H-pyrazol-1-yl)pyrrolidine-1-carbonyl)-3-fluoro-azetidin-1-yl)-4-(dimethyl-amino)but-2-en-1-one], the 50% inhibitory concentration (IC50) is 0.166 µM.

With `C=CC(=O)N1CC(C(=O)N2CC(n3cc(-c4cnc5ccc(Nc6cc(OC)cc(OC)c6)cc5n4)cn3)C2)C1` [Example 16, 1-(3-(3-(4-(7-((3,5-dimethoxyphenyl)amino)-quinoxalin-2-yl)-1H-pyrazol-1-yl)azetidine-1-carbonyl)azetidin-1-yl)-prop-2-en-1-one], the IC50 stood at 0.027 µM.

On to `COc1cc(Nc2ccc3ncc(-c4cnn(C5CCN(C(=O)C6CN(C(=O)/C=C/CN(C)C)C6)CC5)c4)nc3c2)cc(OC)c1` [Example 9, (E)-1-(3-(4-(4-(7-((3,5-dimethoxyphenyl)amino)-quinoxalin-2-yl)-1H-pyrazol-1-yl)piperidine-1-carbonyl)azetidin-1-yl)-4-(dimethylamino)but-2-en-1-one], for which the IC50 came out at 0.01 µM.

As for `C=CC(=O)N1CC(C(=O)N2CCC(n3ncc(-c4cnc5ccc(Nc6cc(OC)cc(OC)c6)cc5n4)c3C)CC2)C1` [Example 18, 1-(3-(4-(4-(7-((3,5-dimethoxyphenyl)amino)-quinoxalin-2-yl)-5-methyl-1H-pyrazol-1-yl)piperi-dine-1-carbonyl)azetidin-1-yl)prop-2-en-1-one], the IC50 was determined as 0.555 µM.
